One data set concerns Lichtheimia ramosa. The data set is described as follows: EUCAST MICs of AmB, ISA, AmB-loaded LNPs and AmB-ISA-loaded LNPs. The data set is classed as cell-based. The conditions noted are these: 24 h at 37° C. Here is the method: (§1) Briefly, a mass (80-120 mg) of an oil phase consisting of triglycerides (Labrafac®, or tributyrin in different mass ratios, i.e. 100% Labrafac® to 100% tributyrin) was supplemented with AmB (0,025 to 0.2 mg) and ISA (0.25 to 5 mg) and then mixed with 80 to 120 mg of PEG15HS (Solutol HS15®) and 500 to 800 μl of water to form an oil-in-water emulsion. This emulsion was then heated to 85° C., to obtain a water-in-oil emulsion, and then cooled to 40° C. Three such temperature cycles were performed and the system was then fast cooled to 4° C. The formulated nanoparticles were then characterized by size distribution and mean zeta potential measurements. Examples of formulations of LNPs loaded with AmB and AmB-ISA are detailed in Table 5:
(§2) Rhizopus arrhizus 1, Lichtheimia corymbifera and Lichtheimia ramosa strains were used. These correspond to the most frequently encountered species in human mucormycosis. These three strains were isolated from patients suffering from pulmonary mucormycosis.
(§3) MICs of AmB in solution, ISA in solution, AmB-loaded LNPs, and AmB-ISA-loaded LNPs were evaluated according to the European Committee on Antimicrobial Susceptibility Testing (EUCAST) guidelines. Briefly, MICs were determined by adding 100 μL of two-fold dilutions of AmB in solution, ISA in solution, AmB-LNPs or AmB-ISA-LNPs (0.008 to 4 mg/L) in 96-well plates. One hundred microliters of a spore suspension at a concentration of 105 spores/mL were added to the wells, and the plates were incubated for 24 h (Mucorales) or 48 h (A. fumigatus) at 37° C. […] Three experiments were performed for each strain.

Data set [1] concerns Rhizopus arrhizus 1. The description is as above. The data set is classed as cell-based. The conditions noted are these: 24 h at 37° C. Here is the method:
as §1, §2, §3

In another data set the test system is Lichtheimia corymbifera. The data set is described as above. The data set is classed as cell-based. The conditions noted are these: 24 h at 37° C. Here is the method: as §1, §2, §3
The next data set relates to Cryptococcus neoformans. The data set is described as follows: EUCAST MICs of AmB alone and AmB formulated in LNPs. The data set is classed as cell-based. Here is the method:
This medium was sterilized using a 0.22 μm pore-size filter.
AmB powder (Sigma-Aldrich) was dissolved in dimethyl sulfoxide to obtain a stock solution at 1000 mg/L, stored at −80° C. for six months.
On the day of use, AmB and freshly made AmB-loaded LNPs were diluted in RPMI medium to obtain the desired concentrations. The AmB-loaded LNPs were prepared as detailed in Example 5.
MICs of AmB alone and AmB formulated in LNPs were evaluated according to the European Committee on Antimicrobial Susceptibility Testing (EUCAST) guidelines. Briefly, MICs were determined by adding 100 μL of two-fold dilutions of AmB (0.008 to 4 mg/L) and LNPs-AmB (0.04 to 1024 mg/L) in 96-well plates. One hundred microliters of a fungal suspension at a final concentration of 10^5 CFU/mL was added to the wells, and the plates were incubated for 48 h at 30° C. MICs, defined as the lowest concentration of AmB inhibiting 90% of the growth of the fungal strain, were read after […] of incubation by measuring absorbance at 530 nm with an Infinite M200 Pro microplate reader (Tecan®, France). Three experiments were performed for each strain.

Data set [2] has as its system Rhizopus arrhizus 1. The data set is described as follows: Checkerboard MICs of AmB, ISA and PEG15HS in solution. The data set is classed as cell-based. Particulars: RPMI, 24 h at 37° C. The procedure:
(§4) AmB minimum inhibitory concentrations (MIC) of each strain of Mucorales was measured in RPMI in the presence of different concentrations of ISA or PEG15HS as described by the EUCAST broth microdilution antifungal susceptibility test methodology with modification for the checkerboard procedure. Checkerboards were performed by adding 100 μL of two-fold dilutions of AmB (0.008 to 4 mg/L) and ISA (0.008 to 4 mg/L) or PEG15HS (0.04 to 2752 mg/L) in 96 well plates. One hundred microliters of a spore suspension at a concentration of 105 spores/mL were added to the wells, and the plates were incubated for 24 h at 37° C. […] Three experiments were performed for each strain.
(§5) AmB MIC of each strain of Mucorales was measured in RPMI in the presence of different concentrations of ISA and a constant concentration of PEG15HS (100 times the concentration of AmB) as described by the EUCAST broth microdilution antifungal susceptibility test methodology with modification for the checkerboard procedure. Checkerboards were performed by adding 100 μL of two-fold dilutions of AmB (0.008 to 4 mg/L)+PEG15HS (0.8 to 400 mg/L) and ISA (0.008 to 4 mg/L) in 96 well plates. One hundred microliters of a spore suspension at a concentration of 105 spores/mL were added to the wells, and the plates were incubated for 24 h at 37° C. […] Three experiments were performed for each strain. […]

A further data set relates to L. ramosa. The data set is described as follows: Checkerboard MICs of AmB, ISA and PEG15HS in solution. The data set is classed as cell-based, Lichtheimia ramosa. The conditions noted are these: RPMI, 24 h at 37° C. The procedure:
as §4, §5

The subject of a further data set is Aspergillus fumigatus. As to the kind of experiment: EUCAST MICs of AmB, ISA, AmB-loaded LNPs and AmB-ISA-loaded LNPs. The data set is classed as cell-based. Particulars: 48 h at 37° C. Here is the method:
as §1
Two reference strains (ATCC 16424 and ATCC 204305) and a clinical azole-resistant strain (AfR2) of Aspergillus fumigatus were used.
as §3

For a further data set, the system named is L. corymbifera. The data set is described as follows: Checkerboard MICs of AmB, ISA and PEG15HS in solution. The data set is classed as cell-based, Lichtheimia corymbifera. The conditions noted are these: RPMI, 24 h at 37° C. Here is the method: as §4, §5

Values after ≈ are worked out from the molar mass of the structure shown. Where two headings read alike, the source gives them in different places.

Description for human erythrocytes: Human blood samples from different healthy volunteers was collected in EDTA tubes and centrifuged at 3000×g for 5 minutes. Plasma was removed and the erythrocytes were washed four times with 2 ml of 0.9% NaCl by centrifugation at 3000×g for 5 minutes.
Erythrocytes were suspended in PBS pH 7.4 and their concentration was adjusted to 5·10^8 cells/mL. Erythrocytes were then incubated with AmB solubilised as a solution or loaded in LNP for 1 hour at 37° C. under shaking, then centrifuged at 3000×g for 5 minutes. Then, 100 μL of the supernatant were transferred in a flat-bottomed transparent 96-well plate and the absorbance was measured at 540 nm. Untreated erythrocytes dispersed in PBS were used as a negative control, and erythrocytes treated by 1% (v/v) of TritonX-100 were used as a positive control. Percentage of hemolysis was calculated using the following equation: 100*(Asample−Acontrol)/(aTritonX−100−Anegative), where Asample is the absorbance measured for each experimental conditions, Anegative and aTritonX-100 are the absorbance of negative and positive controls, respectively.
Sterile Dulbelcc”s phosphate buffered saline (DDPBS, Dominique Dutscher, Bernolsheim, France) pH 7 was also used as a medium to measure the hemolytic activity of AmB.

As for `C[C@@H]1[C@H](O)[C@@H](C)/C=C/C=C/C=C/C=C/C=C/C=C/C=C/[C@H](O[C@@H]2O[C@H](C)[C@@H](O)[C@H](N)[C@@H]2O)C[C@@H]2O[C@](O)(C[C@@H](O)C[C@@H](O)[C@H](O)CC[C@@H](O)C[C@@H](O)CC(=O)O[C@H]1C)C[C@H](O)[C@H]2C(=O)O` [AmB, amphotericin B], the “MIC (AmB)” value against Lichtheimia ramosa is 1 µg/mL (≈ 1.08 µM); in the data set on Rhizopus arrhizus 1 [1], 1 µg/mL (≈ 1.08 µM); against Lichtheimia corymbifera, 1 µg/mL (≈ 1.08 µM); against Aspergillus fumigatus (A. fumigatus 20 (ATCC 204305)) it was 2 µg/mL (≈ 2.16 µM); with Aspergillus fumigatus (A. fumigatus R2 (clinical azole-resistant strain AfR2)), 2 µg/mL (≈ 2.16 µM); in the data set with Aspergillus fumigatus (Aspergillus fumigatus 16 (ATCC 16424)) it was 2 µg/mL (≈ 2.16 µM). Also, the “effect on growth of the cryptococci at concentrations below the MIC” value with Cryptococcus neoformans was “had no effect on the growth profile”. In addition, the MIC in the data set with Cryptococcus neoformans (all the isolates (eight clinical strains)) is 0.25 to 1 µg/mL; against Cryptococcus neoformans (strain C1, 90% growth inhibition, absorbance at 530 nm), 0.5 µg/mL (≈ 0.541 µM); in the data set on Cryptococcus neoformans (strain C2, 90% growth inhibition, absorbance at 530 nm) it was 0.25 µg/mL (≈ 0.271 µM); with Cryptococcus neoformans (strain C3, 90% growth inhibition, absorbance at 530 nm), 0.5 µg/mL (≈ 0.541 µM); against Cryptococcus neoformans (strain C4, 90% growth inhibition, absorbance at 530 nm), 0.5 µg/mL (≈ 0.541 µM); in the data set with Cryptococcus neoformans (strain C5, 90% growth inhibition, absorbance at 530 nm) it was 1 µg/mL (≈ 1.08 µM). The MIC against Cryptococcus neoformans (strain C6, 90% growth inhibition, absorbance at 530 nm) came to 1 µg/mL (≈ 1.08 µM); against Cryptococcus neoformans (strain C7, 90% growth inhibition, absorbance at 530 nm) it was 1 µg/mL (≈ 1.08 µM); against Cryptococcus neoformans (strain C8, 90% growth inhibition, absorbance at 530 nm), 1 µg/mL (≈ 1.08 µM). In addition, the “MIC of AmB” value with Rhizopus arrhizus 1 [2], in the data set with L. ramosa and with L. corymbifera was 1 µg/mL throughout. In addition, the hemolysis entry in the data set with human erythrocytes (in PBS, 5 to 15 mg/L of AmB) was “induce hemolysis”; in the data set on human erythrocytes (in RPMI, AmB 15, 30 mg/L), “induce hemolysis”.
